Data: paper PMC8494430, “Development of a fluorogenic ADAMTS-7 substrate” (Journal of Enzyme Inhibition and Medicinal Chemistry, 2021)

Tests used:
ADAMTS-7 [1] = biological target: T1, ADAMTS-7 (Homo sapiens, UniProt Q9UKP4); test: Inhibition of ADAMTS-7 cleavage of FRET substrate ATS7FP7; type: biochemical
T1 construct: the recombinant construct ADAMTS7-T8, which lacks the C-terminal PLAC domain; made in house
T1 sequence (Q9UKP4 237-1631 limits assumed): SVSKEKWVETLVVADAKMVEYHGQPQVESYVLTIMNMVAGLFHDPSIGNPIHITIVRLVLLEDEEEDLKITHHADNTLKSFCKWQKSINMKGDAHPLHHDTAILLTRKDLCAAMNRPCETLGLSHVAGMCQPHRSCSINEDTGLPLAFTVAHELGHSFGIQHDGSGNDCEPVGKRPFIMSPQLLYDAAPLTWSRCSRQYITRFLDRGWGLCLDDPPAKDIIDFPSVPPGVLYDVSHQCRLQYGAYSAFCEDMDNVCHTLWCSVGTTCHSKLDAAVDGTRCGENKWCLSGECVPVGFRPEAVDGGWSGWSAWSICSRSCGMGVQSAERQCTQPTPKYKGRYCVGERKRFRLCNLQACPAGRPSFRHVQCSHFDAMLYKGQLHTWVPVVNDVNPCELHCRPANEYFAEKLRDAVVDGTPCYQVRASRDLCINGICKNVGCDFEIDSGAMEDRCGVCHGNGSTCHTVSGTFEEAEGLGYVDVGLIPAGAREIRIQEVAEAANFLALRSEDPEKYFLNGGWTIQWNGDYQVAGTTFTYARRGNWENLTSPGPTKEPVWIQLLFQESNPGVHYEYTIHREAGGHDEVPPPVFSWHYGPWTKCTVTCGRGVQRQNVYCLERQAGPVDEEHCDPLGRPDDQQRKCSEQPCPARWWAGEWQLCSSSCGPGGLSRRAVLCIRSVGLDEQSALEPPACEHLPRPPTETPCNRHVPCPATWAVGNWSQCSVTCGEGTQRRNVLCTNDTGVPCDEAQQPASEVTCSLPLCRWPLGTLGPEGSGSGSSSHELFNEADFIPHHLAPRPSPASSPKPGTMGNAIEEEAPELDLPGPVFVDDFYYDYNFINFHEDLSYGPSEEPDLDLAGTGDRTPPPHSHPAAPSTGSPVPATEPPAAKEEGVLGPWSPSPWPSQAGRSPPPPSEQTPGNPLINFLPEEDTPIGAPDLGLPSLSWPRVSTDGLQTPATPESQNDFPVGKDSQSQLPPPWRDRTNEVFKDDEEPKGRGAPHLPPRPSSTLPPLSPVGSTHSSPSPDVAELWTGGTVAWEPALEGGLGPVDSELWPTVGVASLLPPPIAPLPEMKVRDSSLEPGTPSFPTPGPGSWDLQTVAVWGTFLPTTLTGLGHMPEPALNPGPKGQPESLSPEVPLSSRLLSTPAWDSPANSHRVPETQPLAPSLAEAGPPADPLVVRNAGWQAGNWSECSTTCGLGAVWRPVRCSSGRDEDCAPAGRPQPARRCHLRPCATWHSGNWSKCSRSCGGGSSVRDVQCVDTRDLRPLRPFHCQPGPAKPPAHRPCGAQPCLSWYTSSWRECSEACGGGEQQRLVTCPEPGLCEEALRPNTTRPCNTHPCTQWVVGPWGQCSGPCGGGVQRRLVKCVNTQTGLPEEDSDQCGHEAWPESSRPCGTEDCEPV
Method: All enzyme assays were conducted in TNC-B buffer (50 mM Tris- HCl, pH 7.5, 150 mM NaCl, 10 mM CaCl2, and 0.02% NaN3) at 37 °C in 384 well plates (Cat. No: 784900, Greiner Bio-One, Austria). To avoid the formation of inhibitor or peptide aggregates, the detergent Brij-35 (0.05%) was added to TNC-B[13]. For inhibition studies, stock solutions of chemical compounds were prepared in dimethyl sulfoxide (DMSO) (10 mM). […] Blank samples were prepared using buffer only and the rate of cleavage for blank reactions was subtracted from the rates measured in the presence of enzyme. Upon addition of the indicated ADAMTS-7 FRET substrates (40 µM), the fluorescence was measured immediately using a FLUOstar Omega microplate reader (BMG Labtech, Germany) with an excitation filter wavelength of 485 nm and an emission filter wavelength of 520 nm.

ADAMTS-7 [2] = biological target: T1, ADAMTS-7; test: LTBP4S-A cleavage assay (SDS-PAGE, densitometry); type: biochemical
Method: LTBP4S-A cleavage assays were performed as before[8] with small modifications. Here, ADAMTS-7 –T8 (19 nM) was pre-incubated either in the absence or presence of the indicated inhibitors for 2 h at 37 °C before addition of […] (5.6 µM). After 17 h, proteolysis was stopped by addition of Bolt^TM LDS Sample Buffer, 5% β-mercaptoethanol, and heating to 95 °C. Samples were frozen at […] before use. For SDS-PAGE analysis, 12% Bis-Tris Plus Gels (ThermoFisher) were used and stained for 6 h with Imperial protein stain (ThermoFisher). Gels were destained overnight in pure water at room temperature on an orbital shaker and scanned for analysis of LTBP4S-A cleavage bands. To accurately determine cleavage inhibition from each inhibitor, inhibition was quantified by densitometry of the bands corresponding to cleavage products using ImageJ software. The data were plotted using GraphPad Prism 7.0.

IC50 (ADAMTS-7 [1]; ATS7FP7 40 μM, 1 h preincubation, 37 °C): 330 ± 70 nM | increase of ADAMTS-7 inhibition relative to JG23 (ADAMTS-7 [1]; against ATS7FP7): approximately 2 fold | Ki (ADAMTS-7 [1]; read-out: Ki app (ATS7FP7 substrate)): 68 ± 14 nM | IC50 (ADAMTS-7 [2]; ADAMTS-7 19 nM, 2 h preincubation, LTBP4S-A 5.6 μM, 17 h, read-out: IC50 (LTBP4S-A substrate)): 112 ± 14 nM | increase of ADAMTS-7 inhibition relative to JG23 (ADAMTS-7 [2]; against LTBP4S-A): 5.1 fold
SMILES: O=C(NCCC[C@@H](NS(=O)(=O)c1ccc(OCc2ccc(F)cc2Cl)cc1)C(=O)NO)c1ccccc1 [EDV33]
